Counter-ions that a name gives are not always drawn.
target: Transcription factor p65 (Human, UniProt Q04206); experiment: Inhibition of IL1-induced NF-kappaB P65 activation in human osteoarthritic primary chondrocytes preincubated 2 hrs before addition of IL1 by ELISA
Sequence (Q04206 whole entry): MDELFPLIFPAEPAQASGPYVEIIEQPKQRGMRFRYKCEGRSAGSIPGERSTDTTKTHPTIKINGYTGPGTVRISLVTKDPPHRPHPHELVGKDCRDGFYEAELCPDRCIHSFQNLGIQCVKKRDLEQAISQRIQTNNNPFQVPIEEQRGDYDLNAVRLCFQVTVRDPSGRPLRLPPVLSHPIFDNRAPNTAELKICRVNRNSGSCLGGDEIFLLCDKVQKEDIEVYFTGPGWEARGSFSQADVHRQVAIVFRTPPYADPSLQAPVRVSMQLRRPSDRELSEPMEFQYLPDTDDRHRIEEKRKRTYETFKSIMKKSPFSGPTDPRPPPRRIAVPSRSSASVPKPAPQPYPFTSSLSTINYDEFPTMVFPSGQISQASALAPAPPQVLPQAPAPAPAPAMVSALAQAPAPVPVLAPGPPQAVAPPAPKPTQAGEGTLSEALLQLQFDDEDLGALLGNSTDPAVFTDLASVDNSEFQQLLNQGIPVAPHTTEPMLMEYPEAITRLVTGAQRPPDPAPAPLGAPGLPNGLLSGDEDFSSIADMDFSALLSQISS

Row | EC50 [µM] | Structure (SMILES)
1 | 12 | CC(C)C1(CC[C@@H](C)[C@H]2CC[C@@]3(C)[C@@H]4C[C@H](OS(=O)(=O)O)[C@H]5[C@@H](O)[C@H](OS(=O)(=O)O)[C@@H](OS(=O)(=O)O)C[C@]5(C)C4=CC[C@]23C)CC1C (some centres undefined) [Topsentiasterol sulfate E]
2 | 12 | C=C(C)C(CC[C@@H](C)[C@H]1CC[C@@]2(C)[C@@H]3C[C@H](OS(=O)(=O)O)[C@H]4[C@@H](O)[C@H](OS(=O)(=O)O)[C@@H](OS(=O)(=O)O)C[C@]4(C)C3=CC[C@]12C)C(C)C (some centres undefined) [Spheciosterol sulfate B]
3 | 12 | C=C(C)C(C)(C)C(C)CC[C@@H](C)[C@H]1CC[C@@]2(C)[C@@H]3C[C@H](OS(=O)(=O)O)[C@H]4[C@@H](O)[C@H](OS(=O)(=O)O)[C@@H](OS(=O)(=O)O)C[C@]4(C)C3=CC[C@]12C (some centres undefined) [Spheciosterol sulfate C]
4 | 12 | C=C(C)C(CC)CC[C@@H](C)[C@H]1CC[C@@]2(C)[C@@H]3C[C@H](OS(=O)(=O)O)[C@H]4[C@@H](O)[C@H](OS(=O)(=O)O)[C@@H](OS(=O)(=O)O)C[C@]4(C)C3=CC[C@]12C (some centres undefined) [Spheciosterol sulfate A]

— BindingDB's records for doi:10.1021/np8001628 (University of Utah, 2008)
